In paper PMC7823780 (Viruses, 2021):
pEC50: −log10 of the molar value. “Also recorded” adds a separate entry of the source.

Assays:
EV-A71 [1] = assay: Yield reduction assay; type: cell-based, human enterovirus A71 strain BrCr; settings: Vero-76, m.o.i. 0.1, 100, 20, 4 and 0.8 µM, 96 h
[2] = Cytotoxicity assay, mock-infected LLC-MK2; type: cell-based; settings: Macaca mulatta, mock-infected LLC-MK2 cells, mock-infected LLC-MK2, MTT
[3] = Cytotoxicity assay, MTT, mock-infected BHK-21; type: cell-based; settings: Syrian hamster, mock-infected BHK-21 cells; mock-infected BHK-21, MTT
[4] = Cytotoxicity assay, MTT, mock-infected HeLa; type: cell-based; settings: human, mock-infected HeLa cells
Caco-2 cells = assay: Cell monolayer permeabilization (TEER); type: cell-based, human; settings: Caco-2 monolayers, 20 µM, all time points up to 48 h
EV-D68 = assay: Inhibition of EV-D68-induced cytopathogenicity in HeLa cells (MTT); type: cell-based, human enterovirus D 68 strain Fermon; settings: Enterovirus D, EVD68, m.o.i. 0.01
CV-B5 = assay: Plaque reduction assay CV-B5; type: cell-based, human enterovirus B; settings: Enterovirus B, CVB5; 50% reduction of plaque number; read-out: EC50 CV-B5
EV-A71 [5] = assay: Virucidal activity assay; type: cell-based, human enterovirus A71 strain BrCr; settings: 20 µM, 4 or 37 °C, 1 h
[6] = Cytotoxicity assay, MTT, mock-infected Vero-76; type: cell-based; settings: Cercopithecus aethiops, mock-infected Vero-76 cells; mock-infected Vero-76, MTT; value printed without *
CV-B3 = assay: Plaque reduction assay CV-B3; type: cell-based, human enterovirus B; settings: Enterovirus B, CVB3; 50% reduction of plaque number; read-out: EC50 CV-B3
[7] = Cytotoxicity assay, MTT, mock-infected MDBK; type: cell-based; settings: bovine, mock-infected MDBK cells
EV-A71 [8] = assay: Time-of-addition assay; type: cell-based, human enterovirus A71 strain BrCr; settings: Vero-76, m.o.i. 1, 20 µM
EV-A71 [9] = assay: Apoptosis assay, Annexin V/PI flow cytometry, EV-A71-infected Vero-76; type: cell-based, human enterovirus A71 strain BrCr; settings: 96 h, m.o.i. 0.1
PV-1 = assay: microbe, parasite or virus in culture; type: cell-based; settings: Enterovirus C, read-out: EC50 PV-1
EV-A71 [10] = assay: Cell pretreatment assay; type: cell-based, human enterovirus A71 strain BrCr; settings: Vero-76 pre-incubated 2 h with 20 µM, then infected
CV-B4 = assay: Plaque reduction assay CV-B4; type: cell-based, human enterovirus B; settings: Enterovirus B, CVB4; 50% reduction of plaque number; read-out: EC50 CV-B4
Echo9 = assay: Plaque reduction assay Echo9; type: cell-based, human enterovirus B; settings: Enterovirus B; 50% reduction of plaque number, LLC-MK2 cells
EV-A71 [11] = assay: Penetration assay; type: cell-based, human enterovirus A71 strain BrCr; settings: Enterovirus A, EVA71, 1 h; Vero-76, 100–0.8 µM, 60 min at 37 °C; read-out: EC50 of inhibition of viral penetration
EV-A71 [12] = assay: Protective effect on EV-A71-infected Vero-76 monolayers (cell morphology); type: cell-based
EV-A71 [13] = assay: Inhibition of EV-A71-induced cytopathogenicity in Vero-76 cells (MTT); type: cell-based, human enterovirus A71 strain BrCr
EV-A71 [14] = assay: Adsorption assay; type: cell-based, human enterovirus A71 strain BrCr; settings: Vero-76, m.o.i. 1, 20 µM, 2 h at 4 °C

In the case of `CC(C)(C)c1ccc(-c2nc3cc(Cl)ccc3[nH]2)cc1` [Compound 2b, 2-(4-(Tert-Butyl)phenyl)-5-Chloro-1H-Benzo[d]imidazole], the “reduction in EV-A71 titer (yield reduction)” value (EV-A71 [1]) was “dose-dependent reduction”, the CC50 at 5 days [2] was 12 µM and the CC50 [3] was greater than 100 µM. For the same compound, the CC50 at 4 days [4] was 100 µM, the “TEER values versus control” value (Caco-2 cells) was “not significantly different from control values; also recorded: did not induce any significant change in permeability” and the pEC50 (EV-D68) was less than 4.00. The pEC50 (CV-B5) was 5.00, the “virucidal effect on EV-A71 infectivity” value (EV-A71 [5]) was “failed to affect the EV-A71 infectivity” and the CC50 [6] was greater than 100 µM. For the same compound, the pEC50 (CV-B3) was 4.48, the CC50 [7] was greater than 100 µM and the “effect by time of addition” value (EV-A71 [8]) was “greatest effect when added along with the virus”. The viability at 20 µM (EV-A71 [9]; Enterovirus A, EVA71, Vero-76, 20 µM, read-out: viability of EV-A71-infected cells) was 90%, the viability at 80 µM (EV-A71 [9]; Enterovirus A, EVA71, Vero-76, 80 µM, read-out: viability of EV-A71-infected cells) was 80% and the “necrotic cells among EV-A71-infected cells” value (EV-A71 [9]; Vero-76, 20 µM) was 10%. For the same compound, the “necrotic cells among EV-A71-infected cells” value (EV-A71 [9]; Vero-76, 80 µM) was 20%, the pEC50 (PV-1) was 5.22 and the “inhibition after cell pre-incubation” value (EV-A71 [10]) was “no inhibition”. It also gave a pEC50 (CV-B4) of 4.59, a pEC50 (Echo9) of 5.40 and a pEC50 (EV-A71 [11]) of 5.21. The “protection of Vero-76 monolayer from EV-A71 infection (morphology)” value (EV-A71 [12]; 20 µM and 80 µM, m.o.i. 0.1) was “protect cells from EV-A71 infection”, the “cytotoxic effect on Vero-76 monolayer (morphology)” value (EV-A71 [12]; up to a concentration of 80 µM) was “no evident cytotoxic effects” and the pEC50 (EV-A71 [13]; 50% protection of Vero-76 cells from EV-A71-induced cytopathogenicity, MTT, m.o.i. 0.01) was 5.46. The selectivity index (EV-A71 [13]; EV-A71, Vero-76) was greater than 30 and the “virus titer in adsorption assay” value (EV-A71 [14]) was “detectable reduction in the virus titer”.
